This experiment addresses T1, mouse sweet receptor (mT1R2/mT1R3) (Mus musculus, UniProt Q925D8).
T1 construct: expressed in transfected cells
T1 sequence (Q925D8 21-858): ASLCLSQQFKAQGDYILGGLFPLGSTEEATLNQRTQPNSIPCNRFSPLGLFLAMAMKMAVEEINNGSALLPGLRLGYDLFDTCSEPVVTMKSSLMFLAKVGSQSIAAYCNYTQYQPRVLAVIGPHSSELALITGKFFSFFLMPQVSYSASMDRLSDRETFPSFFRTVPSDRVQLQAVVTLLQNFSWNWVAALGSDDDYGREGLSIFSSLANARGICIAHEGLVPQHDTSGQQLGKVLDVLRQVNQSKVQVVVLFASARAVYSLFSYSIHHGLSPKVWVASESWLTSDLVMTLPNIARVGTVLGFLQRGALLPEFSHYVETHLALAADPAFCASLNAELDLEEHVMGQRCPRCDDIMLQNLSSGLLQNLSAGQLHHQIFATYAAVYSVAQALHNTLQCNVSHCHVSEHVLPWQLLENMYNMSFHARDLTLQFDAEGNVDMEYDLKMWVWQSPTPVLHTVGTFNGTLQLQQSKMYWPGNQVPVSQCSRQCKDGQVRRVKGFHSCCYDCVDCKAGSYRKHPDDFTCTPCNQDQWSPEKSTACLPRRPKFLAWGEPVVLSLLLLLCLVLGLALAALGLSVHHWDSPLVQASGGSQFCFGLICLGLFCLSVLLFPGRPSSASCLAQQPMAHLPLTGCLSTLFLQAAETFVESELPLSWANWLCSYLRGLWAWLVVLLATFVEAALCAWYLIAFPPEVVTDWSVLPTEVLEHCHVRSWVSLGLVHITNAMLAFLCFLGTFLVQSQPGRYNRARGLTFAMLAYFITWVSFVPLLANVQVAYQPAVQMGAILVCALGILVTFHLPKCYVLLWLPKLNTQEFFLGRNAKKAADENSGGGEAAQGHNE
T1 sequence (Q925I4 20-843 partner): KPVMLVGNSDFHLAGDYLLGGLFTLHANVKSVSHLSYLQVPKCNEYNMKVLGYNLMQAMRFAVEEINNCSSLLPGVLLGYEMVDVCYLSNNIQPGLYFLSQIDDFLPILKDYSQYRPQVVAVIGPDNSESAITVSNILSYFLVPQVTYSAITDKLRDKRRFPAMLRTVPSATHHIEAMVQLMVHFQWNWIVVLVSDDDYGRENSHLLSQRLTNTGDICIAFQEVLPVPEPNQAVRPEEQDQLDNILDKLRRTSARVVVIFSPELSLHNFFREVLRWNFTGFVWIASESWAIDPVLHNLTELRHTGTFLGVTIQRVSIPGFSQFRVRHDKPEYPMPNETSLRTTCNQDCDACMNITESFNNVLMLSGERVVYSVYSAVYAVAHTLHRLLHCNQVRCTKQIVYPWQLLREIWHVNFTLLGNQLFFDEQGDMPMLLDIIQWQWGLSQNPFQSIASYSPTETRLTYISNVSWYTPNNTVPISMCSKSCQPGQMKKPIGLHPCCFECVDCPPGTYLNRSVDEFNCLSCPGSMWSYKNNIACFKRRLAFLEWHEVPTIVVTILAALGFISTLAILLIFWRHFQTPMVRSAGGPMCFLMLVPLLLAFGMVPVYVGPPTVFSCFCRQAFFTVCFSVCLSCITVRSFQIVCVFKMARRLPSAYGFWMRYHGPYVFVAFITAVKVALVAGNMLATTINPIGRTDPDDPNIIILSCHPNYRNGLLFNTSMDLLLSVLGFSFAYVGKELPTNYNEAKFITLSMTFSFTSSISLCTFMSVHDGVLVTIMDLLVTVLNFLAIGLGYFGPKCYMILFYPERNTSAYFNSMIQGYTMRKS
Nature of the experiment: sweet receptor inhibition assay, mouse receptor. The class given is cell-based. The text has this:
The human T1R3 transmembrane domain determines sensitivity to lactisole, phenoxy herbicides, and fibrates. Inhibition of the receptor's response to sucralose occurred only in the presence of the transmembrane domain of human T1R3. […] Chimeric receptors of T1R3 contained the extracellular portion of human or mouse receptor and the transmembrane domain and C-terminal domain from mouse or human receptor: mh indicates the presence of the mouse extracellular domain and human transmembrane domain; hm indicates the presence of the human extracellular domain and mouse transmembrane domain.

Consider `CC(C)(Oc1ccc(Cl)cc1)C(=O)O` [clofibric acid], for which the “effect on the mouse receptor” value is “no effect”.

The record behind these values is US20150045610A1, “METHOD OF MODIFYING SPERMATOGENESIS, SPERMIOGENESIS AND/OR FERTILITY IN MAMMALS” (Monell Chemical Senses Center, priority 2012, published 2015).
